In one data set the test system is mice with PE infusion. The data set can be described thus: Chronic phenylephrine (PE) infusion model of cardiac hypertrophy. Type of data set: in vivo, mouse. Conditions: PE 75 mg/kg/day minipump, JQ1 from 1.5 days after installation. The text has this:
All mice were C57Bl/6J littermate males aged 10-12 weeks. For TAC, mice were anesthetized with ketamine/xylazine, mechanically ventilated (Harvard apparatus), and subject to thoracotomy. The aortic arch was constricted between the left and right carotid arteries using a 7.0 silk suture and a 27-gauge needle as previously described (Hu et al., 2003). In our hands, this protocol a consistent peak pressure gradient of approximately 50 mmHg across the constricted portion of the aorta. For PE infusion, mice were anesthetized using continuous 1% inhalational isofluorane. Mini-osmotic pumps (Alzet 2004, Durect Corp.) were filled with phenylephrine hydrochloride (PE, Sigma) or vehicle (normal saline) and implanted subcutaneously on the dorsal aspect of the mouse. PE was infused at a dose of 75 mg/kg/day for 17 days. Injections of JQ1 or vehicle were begun 1.5 days postoperatively.
For transthoracic echocardiography, mice were anesthetized with 1% inhalational isofluorane and imaged using the Vevo 770 High Resolution Imaging System (Visual Sonics, Inc.) and the RMV-707B 30 MHz probe. Measurements were obtained from M-mode sampling and integrated EKV images taken in the LV short axis at the mid-papillary level (Haldar et al., 2010). […] Conscious tail-vein systolic blood pressure was measured using the BP2000 Blood Pressure Analysis System (Visitech Systems, Inc.) as recommended by the manufacturer. […]

The nature of data set [1]: Treadmill endurance exercise capacity in mice. Type of data set: in vivo, mouse. Conditions: JQ1 50 mg/kg/day IP, 2-3 weeks (17 days). An excerpt:
(§1) For transthoracic echocardiography, mice were anesthetized with 1% inhalational isofluorane and imaged using the Vevo 770 High Resolution Imaging System (Visual Sonics, Inc.) and the RMV-707B 30 MHz probe. Measurements were obtained from M-mode sampling and integrated EKV images taken in the LV short axis at the mid-papillary level (Haldar et al., 2010). Measurements of pressure gradients across the constricted portion of the aorta were obtained by high frequency Doppler as previously described (Liu et al., 2012). Conscious tail-vein systolic blood pressure was measured using the BP2000 Blood Pressure Analysis System (Visitech Systems, Inc.) as recommended by the manufacturer. To allow mice to adapt to the apparatus, we performed daily blood pressure measurements for one week prior to beginning experiments. Treadmill endurance exercise testing was performed on a motorized mouse treadmill (Columbus Instruments) as previously described (Haldar et al., 2012).

Another data set has as its target T1, BRD4 (Rattus norvegicus, UniProt A0A8I6A216).
T1 construct: endogenous in cells; host or cells: NRVM (primary neonatal rat ventricular cardiomyocytes)
The data set is described as follows: ChIP-qPCR of BRD4 and Pol II at the IL6 proximal promoter in NRVM. The data set is classed as cell-based. Conditions: JQ1 500 nM, PE 100 μM, 90 min. How it is done: NRVM were plated in 15 cm dishes at 5×10^6 cells/dish. Chromatin pooled from approximately 15×10^6 NRVM were used for each immunoprecipitation. After indicated treatments, NRVM were fixed directly on the dish with 1% formaldehyde for 10 minutes followed by quenching with 0.125M glycine for 5 minutes. Chromatin was extracted, followed by shearing on a BioRuptor (Diagenode; total 16 cycles, hi-power, 30 sec on/off). The sonicated chromatin was immunoprecipitated with 5 μg of antibody bound to Dynabeads (Invitrogen) followed by extensive washing and elution. Immunoprecipitate and input chromatin samples were then reverse cross-linked followed by purification of genomic DNA. Target and non-target regions of genomic DNA were amplified by qRT-PCR in both the immunoprecipitates and input samples using Sybrgreen chemistry. Enrichment data were analyzed by calculating the immunoprecipitated DNA percentage of input DNA for each sample as previously described (Ott et al., 2012). Antibodies used in ChIP were BRD4 (Bethyl #A301-985A) and RNA Polymerase II (Santa Cruz N-20, sc-899).
A general note: Quantitative PCR measures a nucleic acid by following its amplification.

Data set [2] can be described thus: Conscious tail-vein systolic blood pressure in mice. The data set is classed as in vivo, mouse. Conditions: JQ1 50 mg/kg/day IP, 17 days.
From the text: as §1

Data set [3] relates to mice with myocardial infarction (MI). The data set is described as follows: Large anterior wall myocardial infarction (permanent proximal LAD ligation) model. Type of data set: in vivo, mouse. The following applies: 25 or 50 mg/kg/day IP from postoperative day 5. The method, then:
Mice were subjected to permanent proximal LAD ligation to create a large anterior wall myocardial infarction (MI). JQ1 or vehicle was begun at the indicated doses (25 mg/kg/day or 50 mg/kg/day, intraperitoneal injection) on postoperative day 5. […] JQ1 attenuates the development of (FIGS. 12B and 15B) LV systolic dysfunction, (FIGS. 12C and 15C) LV cavity dilation, (FIGS. 12D and 15D) LV wall thickening, and (FIGS. 12E and 15E) cardiomegaly after a large anterior wall myocardial infarction. (FIG. 12—N=5 per group; FIG. 15—N=5 in sham group, N=10 in MI group). […] After a myocardial infarction, abnormal remodeling of the heart occurs in distant areas of non-infarcted myocardium, leading to cardiac dilation, enlargement, and contractile dysfunction. This is a very common cause of heart failure. […] Neither this model nor the TAC models involve atherosclerosis. Therefore, the ability to protect the heart in these settings are unrelated to any effects on atherosclerosis.

SMILES strings stand for the structures.

As to `Cc1sc2c(c1C)C(c1ccc(Cl)cc1)=N[C@@H](CC(=O)OC(C)(C)C)c1nnc(C)n1-2` [JQ1], in the data set with mice with PE infusion, the “LV systolic function during chronic PE infusion” value is given as “without any compromise” and the “development of pathologic cardiac hypertrophy during chronic PE infusion” value was “potently suppressed”. Moreover, the “endurance exercise capacity (time to exhaustion)” value in data set [1] is “preserved endurance exercise capacity”. Further, on BRD4, the “recruitment of endogenous BRD4 and Pol II to the proximal promoter of IL6 in response to PE” value was “blocked this recruitment”. The systemic blood pressure entry in data set [2] was “does not affect”. In data set [3], the “development of LV cavity dilation after MI” value is “attenuates”, the “development of LV systolic dysfunction after MI” value was “attenuates”, the “development of LV wall thickening after MI” value is given as “attenuates” and the “development of cardiomegaly after MI” value was “attenuates”. In addition, the “mortality, myocardial rupture, LV aneurysm formation vs. vehicle control” value in data set [3] is “No excess mortality, myocardial rupture, and LV aneurysm formation”.
